From US6426229B1, “Chelating agent and detergent comprising the same” (Mitsubishi Rayon Co., Ltd., priority 1995, dated 2002)

assay: Compression strength (hardening property) of powder stored under load for 2 months; assay type: physicochemical; settings: Load 100 (table head [Kg]; text 100 g/cm^2); 20-30° C., relative humidity 40-70%
Method: Method for the Measurement of Compression Strength
(1) A test sample (500 g) is put in a poly-ethylene bag of 20 cm×20 cm in a room at a temperature of 20-30° C. and a relative humidity of 40-70%. The powder is levelled to an area of 20 cm×20 cm and air is forced out of the bag, and, then, the bag is sealed. This bag is further put in a kraft bag and this kraft bag is sealed.
(2) The kraft bag of (1) is placed horizontally on a flat plate and a plate is put thereon. […]
(3) With keeping the temperature of 20-30° C. and the relative humidity of 40-70%, the test sample is taken out after lapse of 2 months from the starting of application of load. Several test pieces (4 cm long×4 cm broad×2 cm high) are cut out from the sample.

| Structure (SMILES) | Compression strength after stored for 2 months |
| --- | --- |
| O=C(O)CN(CCS(=O)(=O)O)CC(=O)O [Example 37, taurine-N,N-diacetic acid] | 1.0 Kg/cm^2 |
| CN(CC(=O)O)CC(=O)O [Example 38, N-methyliminodiacetic acid] | 1.1 Kg/cm^2 |
| O=C(O)CN(CC(=O)O)c1ccccc1C(=O)O [Example 39, anthranilic acid-N,N-diacetic acid] | 1.2 Kg/cm^2 |
| O=C([O-])CN(CC(=O)[O-])c1ccccc1C(=O)[O-].[Fe+3] [Example 44, iron salt of anthranilic acid-N,N-diacetic acid] | 1.0 Kg/cm^2 |
| O=C([O-])CC(NCCNC(CC(=O)[O-])C(=O)[O-])C(=O)[O-].[Na+].[Na+].[Na+].[Na+] (stereo not shown) [Example 51, tetrasodium ethylenediaminedisuccinate] | 1.2 Kg/cm^2 |
| O=C([O-])C[C@H](NCCN[C@@H](CC(=O)[O-])C(=O)[O-])C(=O)[O-].[Na+].[Na+].[Na+].[Na+] [Example 52, tetrasodium (S,S)-ethylenediaminedisuccinate] | 1.0 Kg/cm^2 |
| O=C([O-])CC(NCCCNC(CC(=O)[O-])C(=O)[O-])C(=O)[O-].[Na+].[Na+].[Na+].[Na+] (stereo not shown) [Example 53, tetrasodium 1,3-propanediaminedisuccinate] | 0.8 Kg/cm^2 |
| O=C([O-])C[C@H](NCCCN[C@@H](CC(=O)[O-])C(=O)[O-])C(=O)[O-].[Na+].[Na+].[Na+].[Na+] [Example 54, tetrasodium (S,S)-1,3-propanediaminedisuccinate] | 0.9 Kg/cm^2 |
| O=C([O-])C[C@H](NCC(O)CN[C@@H](CC(=O)[O-])C(=O)[O-])C(=O)[O-].[Na+].[Na+].[Na+].[Na+] [Example 55, tetrasodium (S,S)-2-hydroxy-1,3-propanediaminedisuccinate] | 1.2 Kg/cm^2 |
| O=C(O)C[C@H](NCCN[C@@H](CC(=O)O)C(=O)O)C(=O)O [Example 66, ethylenediaminedisuccinic acid] | 0.8 Kg/cm^2 |
| O=C(O)C[C@H](NCCN[C@@H](CC(=O)O)C(=O)O)C(=O)O [Example 67, (S,S)-ethylenediaminedisuccinic acid] | 1.1 Kg/cm^2 |
| O=C(O)CC(NCCCNC(CC(=O)O)C(=O)O)C(=O)O (stereo not shown) [Example 68, 1,3-propanediaminedisuccinic acid] | 1.2 Kg/cm^2 |
| O=C(O)C[C@H](NCCCN[C@@H](CC(=O)O)C(=O)O)C(=O)O [Example 69, (S,S)-1,3-propanediaminedisuccinic acid] | 1.0 Kg/cm^2 |
| O=C(O)C[C@H](NCC(O)CN[C@@H](CC(=O)O)C(=O)O)C(=O)O [Example 70, (S,S)-2-hydroxy-1,3-propanediaminedisuccinic acid] | 0.8 Kg/cm^2 |

same assay, conditions: Load 200 (table head [Kg]; text 200 g/cm^2); 20-30° C., relative humidity 40-70%

| Structure (SMILES) | Compression strength after stored for 2 months |
| --- | --- |
| O=C(O)CN(CC(=O)O)c1ccccc1C(=O)O [Example 36, anthranilic acid-N,N-diacetic acid] | 0.9 Kg/cm^2 |
| O=C([O-])CN(CC(=O)[O-])c1ccccc1C(=O)[O-].[Fe+3] [Example 43, iron salt of anthranilic acid-N,N-diacetic acid] | 0.9 Kg/cm^2 |
| O=C([O-])CC(NCCNC(CC(=O)[O-])C(=O)[O-])C(=O)[O-].[Na+].[Na+].[Na+].[Na+] (stereo not shown) [Example 46, tetrasodium ethylenediaminedisuccinate] | 1.1 Kg/cm^2 |
| O=C([O-])C[C@H](NCCN[C@@H](CC(=O)[O-])C(=O)[O-])C(=O)[O-].[Na+].[Na+].[Na+].[Na+] [Example 47, tetrasodium (S,S)-ethylenediaminedisuccinate] | 1.2 Kg/cm^2 |
| O=C([O-])CC(NCCCNC(CC(=O)[O-])C(=O)[O-])C(=O)[O-].[Na+].[Na+].[Na+].[Na+] (stereo not shown) [Example 48, tetrasodium 1,3-propanediaminedisuccinate] | 1.0 Kg/cm^2 |
| O=C([O-])C[C@H](NCCCN[C@@H](CC(=O)[O-])C(=O)[O-])C(=O)[O-].[Na+].[Na+].[Na+].[Na+] [Example 49, tetrasodium (S,S)-1,3-propanediaminedisuccinate] | 1.3 Kg/cm^2 |
| O=C([O-])C[C@H](NCC(O)CN[C@@H](CC(=O)[O-])C(=O)[O-])C(=O)[O-].[Na+].[Na+].[Na+].[Na+] [Example 50, tetrasodium (S,S)-2-hydroxy-1,3-propanediaminedisuccinate] | 1.2 Kg/cm^2 |
| O=C(O)C[C@H](NCCN[C@@H](CC(=O)O)C(=O)O)C(=O)O [Example 61, ethylenediaminedisuccinic acid] | 0.9 Kg/cm^2 |
| O=C(O)C[C@H](NCCN[C@@H](CC(=O)O)C(=O)O)C(=O)O [Example 62, (S,S)-ethylenediaminedisuccinic acid] | 1.0 Kg/cm^2 |
| O=C(O)CC(NCCCNC(CC(=O)O)C(=O)O)C(=O)O (stereo not shown) [Example 63, 1,3-propanediaminedisuccinic acid] | 1.1 Kg/cm^2 |
| O=C(O)C[C@H](NCCCN[C@@H](CC(=O)O)C(=O)O)C(=O)O [Example 64, (S,S)-1,3-propanediaminedisuccinic acid] | 0.9 Kg/cm^2 |
| O=C(O)C[C@H](NCC(O)CN[C@@H](CC(=O)O)C(=O)O)C(=O)O [Example 65, (S,S)-2-hydroxy-1,3-propanediaminedisuccinic acid] | 1.0 Kg/cm^2 |
| O=C([O-])CC(NCCNC(CC(=O)[O-])C(=O)[O-])C(=O)[O-].[Fe+3].[NH4+] (stereo not shown) [Example 76, iron ammonium ethylenediaminedisuccinate] | 1.1 Kg/cm^2 |
| O=C([O-])CC(NCCNC(CC(=O)[O-])C(=O)[O-])C(=O)[O-].[Cu+2].[Na+].[Na+] (stereo not shown) [Example 77, copper disodium ethylenediaminedisuccinate] | 1.2 Kg/cm^2 |
| O=C([O-])CC(NCCNC(CC(=O)[O-])C(=O)[O-])C(=O)[O-].[Na+].[Na+].[Ni+2] (stereo not shown) [Example 78, nickel disodium ethylenediaminedisuccinate] | 1.0 Kg/cm^2 |
| O=C([O-])C[C@H](NCCN[C@@H](CC(=O)[O-])C(=O)[O-])C(=O)[O-].[Fe+3].[NH4+] [Example 79, iron ammonium (S,S)-ethylenediaminedisuccinate] | 0.9 Kg/cm^2 |

same assay, conditions: Load 300 (table head [Kg]; text 300 g/cm^2); 20-30° C., relative humidity 40-70%

| Structure (SMILES) | Compression strength after stored for 2 months |
| --- | --- |
| O=C(O)CN(CCS(=O)(=O)O)CC(=O)O [Example 40, taurine-N,N-diacetic acid] | 0.9 Kg/cm^2 |
| CN(CC(=O)O)CC(=O)O [Example 41, N-methyliminodiacetic acid] | 1.0 Kg/cm^2 |
| O=C(O)CN(CC(=O)O)c1ccccc1C(=O)O [Example 42, anthranilic acid-N,N-diacetic acid] | 1.1 Kg/cm^2 |
| O=C([O-])CC(NCCNC(CC(=O)[O-])C(=O)[O-])C(=O)[O-].[Na+].[Na+].[Na+].[Na+] (stereo not shown) [Example 56, tetrasodium ethylenediaminedisuccinate] | 0.8 Kg/cm^2 |
| O=C([O-])C[C@H](NCCN[C@@H](CC(=O)[O-])C(=O)[O-])C(=O)[O-].[Na+].[Na+].[Na+].[Na+] [Example 57, tetrasodium (S,S)-ethylenediaminedisuccinate] | 0.9 Kg/cm^2 |
| O=C([O-])CC(NCCCNC(CC(=O)[O-])C(=O)[O-])C(=O)[O-].[Na+].[Na+].[Na+].[Na+] (stereo not shown) [Example 58, tetrasodium 1,3-propanediaminedisuccinate] | 1.0 Kg/cm^2 |
| O=C([O-])C[C@H](NCCCN[C@@H](CC(=O)[O-])C(=O)[O-])C(=O)[O-].[Na+].[Na+].[Na+].[Na+] [Example 59, tetrasodium (S,S)-1,3-propanediaminedisuccinate] | 1.1 Kg/cm^2 |
| O=C([O-])C[C@H](NCC(O)CN[C@@H](CC(=O)[O-])C(=O)[O-])C(=O)[O-].[Na+].[Na+].[Na+].[Na+] [Example 60, tetrasodium (S,S)-2-hydroxy-1,3-propanediaminedisuccinate] | 1.2 Kg/cm^2 |
| O=C(O)C[C@H](NCCN[C@@H](CC(=O)O)C(=O)O)C(=O)O [Example 71, ethylenediaminedisuccinic acid] | 1.2 Kg/cm^2 |
| O=C(O)C[C@H](NCCN[C@@H](CC(=O)O)C(=O)O)C(=O)O [Example 72, (S,S)-ethylenediaminedisuccinic acid] | 1.3 Kg/cm^2 |
| O=C(O)CC(NCCCNC(CC(=O)O)C(=O)O)C(=O)O (stereo not shown) [Example 73, 1,3-propanediaminedisuccinic acid] | 1.1 Kg/cm^2 |
| O=C(O)C[C@H](NCCCN[C@@H](CC(=O)O)C(=O)O)C(=O)O [Example 74, (S,S)-1,3-propanediaminedisuccinic acid] | 1.2 Kg/cm^2 |
| O=C(O)C[C@H](NCC(O)CN[C@@H](CC(=O)O)C(=O)O)C(=O)O [Example 75, (S,S)-2-hydroxy-1,3-propanediaminedisuccinic acid] | 1.0 Kg/cm^2 |
